Measured values taken from patent publication US8211909B2, “Treatment of antibiotic-resistant bacteria infection” (TaiGen Biotechnology Co., Ltd., priority 2008, dated 2012).
Converted amounts (≈) assume the structure as drawn. Where two headings read alike, the source gives them in different places. Values belong to the molecule of their own block, whether it stands above or below them.

Assays:
[1] = test system: Methicillin-resistant Staphylococcus aureus (MRSA) isolates; assay: MIC by broth microdilution (CLSI) against CAN-ICU MRSA isolates; format: cell-based; conditions: Staphylococcus aureus
Source text: MRSA isolates (n=193) were obtained as part of the Canadian National Intensive Care Unit (CAN-ICU) Study. 19 medical centers from all regions of Canada with active ICUs participated in the CAN-ICU study included. They were requested to only obtain “clinically significant” specimens from patients with a presumed infectious disease. Surveillance swabs, eye, ear, nose and throat swabs were excluded. Anaerobic organisms and fungal organisms were also excluded.
From September 2005-June 2006 (inclusive), each center collected a maximum of 300 consecutive pathogens isolated from blood, urine, tissue/wound, and respiratory specimens (one pathogen per cultured site per patient) of ICU patients. These isolates were shipped to the reference laboratory (Health Sciences Centre, Winnipeg, Canada) on Amies charcoal swabs, subcultured in appropriate media, and stocked in skim milk at −80° C.
All isolates underwent mecA PCR, as well as molecular characterization (including PVL analysis and fingerprinting), as previously described, to assess whether they were community-associated or healthcare-associated (Christianson et al., J Clin Microbiol. 2007, 45 (6): 1904-11; Mulvey et al., J Clin. Microbiol. 2001, 39(10): 3481-5; Mulvey et al., Emerg Infect Dis. 2005,11(6): 844-50; Oliveira et al., Antimicrob Agents Chemother. 2002, 46(7): 2155-61). The isolates were also subtyped using pulsed-field gel electrophoresis (PFGE) following the Canadian standardized protocol as previously described (Mulvey et al., J Clin Microbiol. 2001, 39(10): 3481-5). Their PFGE fingerprints thus obtained were analyzed with BioNumerics v3.5 (Applied Maths St. Marten-Latem, Belgium) using a position tolerance of 1.0 and an optimization of 1.0. Strain relatedness was determined as previously described (Tenover et al., 1995). The fingerprints of the isolates were compared to the national MRSA fingerprint database and were grouped into one of 10 Canadian epidemic MRSA (CMRSA-1, CMRSA-2, etc) as previously described (Mulvey et al., Emerg Infect Dis. 2005,11(6):844-50).
Compound 1 and other antibiotics were tested for their inhibitory activity against the MRSA isolates using the broth microdilution guidelines as stipulated by the Clinical and Laboratory Standards Institute.

[2] = test system: Staphylococcus aureus strains (MRSA, hVISA, VISA, VRSA, quinolone-resistant MRSA); assay: MIC by agar dilution against Staphylococcal strains (MRSA, hVISA, VISA, VRSA, quinolone-resistant MRSA); format: cell-based
Method: Compound 1 was tested for its inhibitory effect against 26 Methicillin-resistant Staphylococcus aureus (MRSA) strains, 2 hetero-Vancomycin intermediate Staphylococcus aureus (hVISA) strains, 24 Vancomycin-intermediate Staphylococcus aureus (VISA) strains, 5 Vancomycin-resistant Staphylococcus aureus (VRSA) strains, and 31 quinolone-resistant Vancomycin-susceptibale MRSA strains with defined mutations in QRDR. These mutations were determined by sequencing analysis of the QRDR (gyrA, gyrB, grlA, and grlB). Efflux testing was performed by the reserpine method (Brenwald, et al., Antimicrob. Agents Chemother. 1998, 42: 2032-2035).

[3] = test system: H. pylori isolates; assay: MIC by agar dilution against 200 H. pylori isolates (Taiwan); format: cell-based, Helicobacter pylori
Method: MICs were determined using the agar dilution methods recommended by the Clinical and Laboratory Standards Institute (CLSI-M100-S18).

[4] = MRSA (n = 193), read-out: MIC50
[5] = MRSA (n = 193), read-out: MIC90
[6] = MRSA (n = 193), read-out: MIC Range Max
[7] = MRSA (n = 193), read-out: MIC Range Min
[8] = Staphylococcus aureus, MRSA (26)
[9] = Staphylococcus aureus, Quinolone-resistant MRSA (31)
[10] = Staphylococcus aureus, hVISA(2) + VISA (24) + VRSA (5)
[11] = Staphylococcus aureus, read-out: MIC Range, MRSA (26)
[12] = Staphylococcus aureus, read-out: MIC Range, Quinolone-resistant MRSA (31)
[13] = Staphylococcus aureus, read-out: MIC Range, hVISA(2) + VISA (24) + VRSA (5)
[14] = Helicobacter pylori, 200 isolates of H. pylori
[15] = hVISA(2) + VISA (24) + VRSA (5)

MIC50 [1, 4]: > 8 µg/mL | MIC90 [1, 5]: > 8 µg/mL | MIC [1, 6]: > 8 µg/mL | MIC [1, 7]: ≤ 0.12 µg/mL
Molecule: CCC[C@@H]1C[C@@H](C(=O)N[C@@H]([C@H]2O[C@H](SC)[C@H](O)[C@@H](O)[C@H]2O)[C@H](C)Cl)N(C)C1 [Clindamycin]

Molecule: CCCCCCCCCC(=O)N[C@@H](Cc1c[nH]c2ccccc12)C(=O)N[C@H](CC(N)=O)C(=O)N[C@@H](CC(=O)O)C(=O)N[C@@H]1C(=O)NCC(=O)N[C@@H](CCCN)C(=O)N[C@@H](CC(=O)O)C(=O)N[C@H](C)C(=O)N[C@@H](CC(=O)O)C(=O)NCC(=O)N[C@H](CO)C(=O)N[C@@H]([C@H](C)CC(=O)O)C(=O)N[C@@H](CC(=O)c2ccccc2N)C(=O)O[C@@H]1C [Daptomycin]
MIC50 [1, 4]: 0.25 µg/mL (≈ 0.154 µM) | MIC90 [1, 5]: 0.5 µg/mL (≈ 0.309 µM) | MIC [1, 6]: 0.5 µg/mL (≈ 0.309 µM) | MIC [1, 7]: 0.25 µg/mL (≈ 0.154 µM) | MIC50 [2, 8]: 1 µg/mL (≈ 0.617 µM) | MIC90 [2, 8]: 1 µg/mL (≈ 0.617 µM) | MIC50 [2, 9]: 0.25 µg/mL (≈ 0.154 µM) | MIC90 [2, 9]: 0.25 µg/mL (≈ 0.154 µM) | MIC50 [2, 10]: 1 µg/mL | MIC90 [2, 10]: 2 µg/mL | MIC [2, 11]: 0.5 to 1 µg/mL (≈ 0.309 to 0.617 µM) | MIC [2, 12]: 0.12 to 1 µg/mL (≈ 0.074 to 0.617 µM) | MIC [2, 13]: 0.12 to 4 µg/mL

Molecule: Cc1ncc([N+](=O)[O-])n1CCO [metronidazole]
share of isolates resistant ([3]; 200 H. pylori isolates, resistance: amoxicillin MICs≧0.5, clarithromycin ≧1, metronidazole ≧8, ciprofloxacin ≧1, levofloxacin ≧1 μg/mL): 29%

MIC50 [3, 14]: 60 µg/mL (≈ 154 µM) | MIC90 [3, 14]: 120 µg/mL (≈ 308 µM)
Molecule: CO/N=C1\CN(c2nc3c(cc2F)c(=O)c(C(=O)O)cn3C2CC2)CC1CN (centres unmarked) [Gemifloxacin]

Molecule: Teicoplanin
MIC50 ([2]; MRSA (26)): 0.5 µg/mL | MIC90 ([2]; MRSA (26)): 1 µg/mL | MIC Range ([2]; MRSA (26)): 0.5 to 1 µg/mL | MIC50 ([2]; Quinolone-resistant MRSA (31)): 0.5 µg/mL | MIC90 ([2]; Quinolone-resistant MRSA (31)): 1 µg/mL | MIC Range ([2]; Quinolone-resistant MRSA (31)): 0.25 to 2 µg/mL | MIC50 [2, 15]: 8 µg/mL | MIC90 [2, 15]: 16 µg/mL | MIC Range [2, 15]: 1 to 32 µg/mL

Molecule: CN(C)c1cc(NC(=O)CNC(C)(C)C)c(O)c2c1C[C@H]1C[C@H]3[C@H](N(C)C)C(O)=C(C(N)=O)C(=O)[C@@]3(O)C(O)=C1C2=O [Tigecycline]
MIC50 ([1]; MRSA): 0.25 µg/mL (≈ 0.427 µM) | MIC90 ([1]; MRSA): 0.5 µg/mL (≈ 0.854 µM) | MIC50 ([1]; MRSA / USA100): 0.25 µg/mL (≈ 0.427 µM) | MIC90 ([1]; MRSA / USA100): 0.25 µg/mL (≈ 0.427 µM) | MIC50 ([1]; MRSA / USA200): 0.5 µg/mL (≈ 0.854 µM) | MIC90 ([1]; MRSA / USA200): 0.5 µg/mL (≈ 0.854 µM) | MIC50 ([1]; MRSA / USA300): 0.25 µg/mL (≈ 0.427 µM) | MIC90 ([1]; MRSA / USA300): 0.5 µg/mL (≈ 0.854 µM) | MIC50 ([1]; MRSA / USA400): 0.25 µg/mL (≈ 0.427 µM) | MIC90 ([1]; MRSA / USA400): 0.25 µg/mL (≈ 0.427 µM) | MIC50 ([1]; MRSA / USA600): 0.25 µg/mL (≈ 0.427 µM) | MIC90 ([1]; MRSA / USA600): 0.5 µg/mL (≈ 0.854 µM) | MIC ([1]; MRSA, read-out: MIC Range Max): 0.5 µg/mL (≈ 0.854 µM) | MIC ([1]; MRSA, read-out: MIC Range Min): 0.12 µg/mL (≈ 0.205 µM) | MIC50 [2, 8]: 0.25 µg/mL (≈ 0.427 µM) | MIC90 [2, 8]: 0.5 µg/mL (≈ 0.854 µM) | MIC50 [2, 9]: 0.12 µg/mL (≈ 0.205 µM) | MIC90 [2, 9]: 0.25 µg/mL (≈ 0.427 µM) | MIC50 [2, 10]: 0.25 µg/mL | MIC90 [2, 10]: 0.5 µg/mL | MIC [2, 11]: 0.12 to 0.5 µg/mL (≈ 0.205 to 0.854 µM) | MIC [2, 12]: 0.12 to 0.5 µg/mL (≈ 0.205 to 0.854 µM) | MIC [2, 13]: 0.06 to 0.5 µg/mL

MIC50 [1, 4]: 16 µg/mL (≈ 41.7 µM) | MIC90 [1, 5]: > 32 µg/mL | MIC [1, 6]: > 32 µg/mL | MIC [1, 7]: 0.25 µg/mL (≈ 0.652 µM)
Molecule: C[C@@H](O)[C@H]1C(=O)N2C(C(=O)O)=C(S[C@@H]3CN[C@H](C(=O)N(C)C)C3)[C@H](C)[C@H]12 [Meropenem]
